In patent publication US12398235B2, “Oligomeric epoxy pre-polymers comprising isosorbide units” (ROQUETTE FRERES, priority 2020, dated 2025) one finds Induction ratio data, which are given here for one compound.

The data set has as its system bacterial strain (mutant bacterial colonies). The data set can be described thus: Ames test of epoxy pre-polymers (mutagenic potential). It is filed as cell-based. Conditions: number of mutant bacterial colonies from a given strain exposed to the compound, non-toxic at induction ratio of 2 or less. The protocol:
In order to determine the mutagenic potential of the epoxy pre-polymers, an Ames test was carried out on different Mn and EEW epoxy resins. The results are expressed in induction levels, that is, the number of mutant bacterial colonies obtained from a given strain exposed to the compound. The resin is considered to be non-toxic in the case of an induction ratio of 2 or less.
For orientation: The Ames test detects mutagens through reverse mutation in bacteria.

As for `C1OC1COC1COC2C(OCC3CO3)COC12` (stereo not shown) [IDGE 1* fraction, isosorbide diglycidylether], the Induction ratio is on record as 20.2.
